Like-named read-outs stand apart in the source and are kept apart here.
Experiments:
[1] = system: HEK-293; assay: Cell viability assay (MTS), HEK-293; assay type: cell-based; details: 48 h, mean ± SD
Procedure: (§1) Five thousand cells/well were plated in 96-well plates in growth media and left for attachment for 24 h. The cells were then treated with the respective compounds using varying concentrations for 48 h. At the end of the treatment duration, a solution of MTS [3-(4,5-dimethylthiazol-2-yl)-5-(3-carboxymethoxyphenyl)-2-(4-sulfophenyl)-2H-tetrazolium] and an electron coupling reagent, PES (phenazine ethosulfate) (Promega, Madison, WI, USA) was added to the cells. Then, 15 μL of MTS reagent was added to each well, and the absorbance was assessed at 490 nm with a microplate reader (Dynex Technologies, MRX Revelation; Chantilly, VA, USA) after 1 h incubation with MTS. The data were recorded, and the IC50 value was calculated using non-linear curve regression analysis (Graph pad V8.0, CA, USA).

[2] = target: T1, ALDH1A1 (Homo sapiens, UniProt P00352); assay: ALDH isoform-specific enzyme inhibition assay, ALDH1A1; assay type: biochemical; details: Acetaldehyde (Substrate); for inhibition at 0.5 µM: 500 nM
T1 construct: purchased R&D systems
T1 sequence (P00352 1-501): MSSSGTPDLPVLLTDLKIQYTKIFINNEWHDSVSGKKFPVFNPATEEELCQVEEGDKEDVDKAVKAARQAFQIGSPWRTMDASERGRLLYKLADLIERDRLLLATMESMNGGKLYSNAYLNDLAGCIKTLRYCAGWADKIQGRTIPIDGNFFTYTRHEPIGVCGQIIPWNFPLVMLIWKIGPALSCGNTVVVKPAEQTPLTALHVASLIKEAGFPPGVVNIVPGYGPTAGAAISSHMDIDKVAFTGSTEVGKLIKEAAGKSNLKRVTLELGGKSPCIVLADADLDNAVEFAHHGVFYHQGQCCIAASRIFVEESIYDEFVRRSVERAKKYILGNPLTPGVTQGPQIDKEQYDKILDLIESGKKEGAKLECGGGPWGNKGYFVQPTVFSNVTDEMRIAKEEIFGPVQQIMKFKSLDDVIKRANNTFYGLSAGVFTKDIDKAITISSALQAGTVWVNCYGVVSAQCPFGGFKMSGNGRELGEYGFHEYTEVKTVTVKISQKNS
Procedure: (§2) ALDH1A1, ALDH3A1, and ALDH1A3 enzyme inhibition assays were performed as reported previously. Briefly, 500 ng/100 uL of ALDH1A1, ALDH3A1, and ALDH1A3 were treated with 500 nM concentration of the tested compounds and incubated for 15 min followed by the addition of reaction mixture (substrate + Substrate mixture). […] The absorbance was measured at 450 nm. [Absorbance Control–Absorbance treated/Absorbance Control]100 was used to compute the percentage of inhibition.

[3] = system: SKOV-3, MiaPaCa-2, HCT-116, HEK-293, and FHC cell lines; assay: Cell viability assay (MTS), statements over the cell line panel; assay type: cell-based, human; details: for IC50: read-out: IC50 in cancer cell lines; for IC50 / cytotoxicity against the tested cell lines: range or statement over all tested cell lines
Procedure: as §1

[4] = target: T2, ALDH3A1 (Homo sapiens, UniProt P30838); assay: ALDH isoform-specific enzyme inhibition assay, ALDH3A1; assay type: biochemical; details: Acetaldehyde (Substrate); for inhibition at 0.5 µM: 500 nM
T2 construct: purchased R&D systems
T2 sequence (P30838 1-453): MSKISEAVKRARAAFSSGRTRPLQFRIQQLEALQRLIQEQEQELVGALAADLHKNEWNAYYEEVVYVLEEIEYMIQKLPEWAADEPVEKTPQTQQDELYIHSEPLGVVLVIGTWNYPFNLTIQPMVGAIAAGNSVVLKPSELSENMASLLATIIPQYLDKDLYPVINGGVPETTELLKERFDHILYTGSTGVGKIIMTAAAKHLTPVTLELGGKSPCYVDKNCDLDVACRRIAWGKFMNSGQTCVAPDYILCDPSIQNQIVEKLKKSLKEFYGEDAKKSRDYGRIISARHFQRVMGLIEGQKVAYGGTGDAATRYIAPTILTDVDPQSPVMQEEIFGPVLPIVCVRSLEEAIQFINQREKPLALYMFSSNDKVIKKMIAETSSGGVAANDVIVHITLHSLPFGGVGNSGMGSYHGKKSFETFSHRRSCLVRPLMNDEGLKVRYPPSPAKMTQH
Procedure: as §2

[5] = system: MiaPaCa-2; assay: Cell viability assay (MTS), MiaPaCa-2; assay type: cell-based, human; details: 48 h, mean ± SD
Procedure: as §1

[6] = system: HCT-116; assay: Cell viability assay (MTS), HCT-116; assay type: cell-based, human; details: 48 h, mean ± SD
Procedure: as §1

[7] = system: FHC; assay: Cell viability assay (MTS), FHC; assay type: cell-based; details: normal fetal human cells, 48 h, mean ± SD
Procedure: as §1

[8] = system: SKOV-3; assay: Cell viability assay (MTS), SKOV-3; assay type: cell-based, human; details: 48 h, mean ± SD
Procedure: as §1

[9] = HEK293, human embryonic kidney cells
[10] = Homo sapiens, MIA PaCa-2, pancreatic cancer cells
[11] = Homo sapiens, HCT-116, colon cancer cells
[12] = Homo sapiens, SK-OV-3, ovarian cancer cells
[13] = Homo sapiens, Pancreatic cancer cell, ovarian, colon, and pancreatic cancer cells, 48 h MTS
[14] = Homo sapiens, Pancreatic cancer cell, 48 h

| inhibition at 0.5 µM [2] [%] | inhibition at 0.5 µM [4] [%] | Compound | IC50 ([1]; human embryonic kidney cells) [µM] | % Enzyme Inhibition at 500 nM ALDH1A1 [2] [%] | IC50 ([3]; ovarian, colon, and pancreatic cancer cells, 48 h MTS) [µM] | % Enzyme Inhibition at 500 nM ALDH3A1 [4] [%] | IC50 ([5]; pancreatic cancer cells) [µM] | IC50 ([6]; colon cancer cells) [µM] | IC50 [7] [µM] | IC50 ([8]; ovarian cancer cells) [µM] | melting point [°C] | IC50 [1, 9] [µM] | IC50 [5, 10] [µM] | IC50 [6, 11] [µM] | IC50 ([7]; FHC) [µM] | IC50 [8, 12] [µM] | IC50 / cytotoxicity against the tested cell lines ([3]; 48 h MTS) | IC50 [3, 13] [µM] | IC50 [3, 14] [µM] |
| --- | --- | --- | --- | --- | --- | --- | --- | --- | --- | --- | --- | --- | --- | --- | --- | --- | --- | --- | --- |
|  |  | 4-((5-(Trifluoromethyl)-1H-indazol-1-yl)methyl)benzylcarbamimidothioate hydrobromide [Compound 12] | 4.7 ± 1.1 | 10.01 ± 0.01 | 4.7 to 33 | −14.03 ± 0.06 | 4.7 ± 0.4 | 5.5 ± 0.1 | 3.1 ± 0.8 | 8.2 ± 2.7 |  |  |  |  |  |  |  |  |  |
| 28.26 ± 0.01 | 22.82 ± 0.05 | O=C(OCc1ccc(CN2C(=O)C(=O)c3cc(Br)cc(Br)c32)cc1)c1ccco1 [Compound 4, 4-((5,7-Dibromo-2,3-dioxoindolin-1-yl)methyl)benzyl furan-2-carboxylate] |  |  |  |  |  |  |  |  | 132 to 134 | 5.3 ± 1.4 | 7.1 ± 0.8 | 6.1 ± 1.2 | 6.7 ± 1.9 | 7.2 ± 1.3 |  |  |  |
| 24.82 ± 0.01 | 39.58 ± 0.05 | O=Cc1ccc(CN2C(=O)C(=O)c3cc(Br)cc(Br)c32)cc1 [Compound 5, 4-((5,7-Dibromo-2,3-dioxoindolin-1-yl)methyl)benzaldehyde] |  |  |  |  |  |  |  |  | 205 to 207 | 7.5 ± 1.8 | 5.4 ± 0.9 | 8.8 ± 2.3 | 12.9 ± 3.3 | 8.2 ± 1.1 | less cytotoxic than KS100 |  |  |
|  |  | Br.COc1ccc2c(c1)C(=O)C(=O)N2Cc1ccc(CSC(=N)N)cc1 [Compound 6, 4-((5-Methoxy-2,3-dioxoindolin-1-yl)methyl)benzyl carbamimidothioate hydrobromide] |  |  |  |  |  |  |  |  | 214 to 216 | > 50 | > 50 | > 50 | > 50 | 45 ± 2.5 | inert |  |  |
|  |  | Br.C=CCNC(=N)SCc1ccc(CN2C(=O)C(=O)c3cc(C(F)(F)F)ccc32)cc1 [Compound 7, 4-((2,3-Dioxo-5-(trifluoromethyl)indolin-1-yl)methyl)benzyl allylcarbamimidothioate hydrobromide] |  |  |  |  |  |  |  |  | 122 to 124 | 9.7 ± 1.1 | 10.3 ± 2.4 | 12 ± 3.1 | 8.1 ± 0.8 | 9.1 ± 1.3 | less cytotoxic than KS100 |  |  |
|  |  | COC(=O)/C=C/c1ccc(Cn2ncc3cc(C(F)(F)F)ccc32)cc1 [Compound 8, Methyl (E)-3-(4-((5-(trifluoromethyl)-1H-indazol-1-yl)methyl)phenyl)acrylate] |  |  |  |  |  |  |  |  |  | > 50 | > 50 | > 50 | > 50 | > 50 |  | > 50 |  |
|  |  | COC(=O)/C=C/c1ccc(Cn2cc3cc(C(F)(F)F)ccc3n2)cc1 [Compound 9, Methyl (E)-3-(4-((5-(trifluoromethyl)-2H-indazol-2-yl)methyl)phenyl)acrylate] |  |  |  |  |  |  |  |  |  | > 50 | > 50 | > 50 | > 50 | > 50 |  | > 50 |  |
|  |  | Br.C=CCNC(=N)SCc1ccc(Cn2ncc3cc(C(F)(F)F)ccc32)cc1 [Compound 10, 4-((5-(Trifluoromethyl)-1H-indazol-1-yl)methyl)benzyl allylcarbamimidothioate hydrobromide] |  |  |  |  |  |  |  |  | 104 to 106 | > 50 | 48.4 ± 3.2 | > 50 | > 50 | > 50 |  |  | > 50 |
|  |  | Br.C=CCNC(=N)SCc1ccc(Cn2cc3cc(C(F)(F)F)ccc3n2)cc1 [Compound 11, 4-((5-(Trifluoromethyl)-2H-indazol-2-yl)methyl)benzyl allylcarbamimidothioate hydrobromide] |  |  |  |  |  |  |  |  | 105 to 107 | > 50 | > 50 | > 50 | > 50 | > 50 |  |  | > 50 |
|  |  | Br.N=C(N)SCc1ccc(Cn2cc3cc(C(F)(F)F)ccc3n2)cc1 [Compound 13, 4-((5-(Trifluoromethyl)-2H-indazol-2-yl)methyl)benzyl carbamimidothioate hydrobromide] |  |  |  |  |  |  |  |  | 181 to 183 | 18.9 ± 5.1 | 33.2 ± 4.4 | 18.2 ± 3.1 | 14.4 ± 2.3 | 22.7 ± 2.3 |  |  | 4.7 to 33 |
|  |  | Br.N=C(N)SCc1ccc(Cn2ncc3cccc(C(F)(F)F)c32)cc1 [Compound 14, 4-((7-(Trifluoromethyl)-1H-indazol-1-yl)methyl)benzyl carbamimidothioate hydrobromide] |  |  |  |  |  |  |  |  | 206 to 208 | 17.7 ± 3.7 | 12.3 ± 2.7 | 14.2 ± 2.3 | 29.3 ± 4.9 | 16.8 ± 3.5 |  |  |  |
|  |  | Br.N=C(N)SCc1ccc(Cn2cc3cccc(C(F)(F)F)c3n2)cc1 [Compound 15, 4-((7-(Trifluoromethyl)-2H-indazol-2-yl)methyl)benzyl carbamimidothioate hydrobromide] |  |  |  |  |  |  |  |  | 195 to 197 | > 50 | > 50 | > 50 | > 50 | > 50 |  |  | > 50 |
|  |  | Br.COc1ccc2c(c1)c(Br)nn2Cc1ccc(CSC(=N)N)cc1 [Compound 18, 4-((3-Bromo-5-methoxy-1H-indazol-1-yl)methyl)benzyl carbamimidothioate hydrobromide] |  |  |  |  |  |  |  |  | 171 to 173 | > 50 | 44.6 ± 3.7 | 39.2 ± 3.9 | > 50 | 42.2 ± 5.8 |  |  | > 50 |
|  |  | OCc1ccc(Cn2nc(Br)c3cc(C(F)(F)F)ccc32)cc1 [Compound 19, (4-((3-Bromo-5-(trifluoromethyl)-1H-indazol-1-yl)methyl)phenyl)methanol] |  |  |  |  |  |  |  |  |  | > 50 | > 50 | > 50 | > 50 | > 50 |  | > 50 |  |
|  |  | O=Cc1ccc(Cn2nc(Br)c3cc(C(F)(F)F)ccc32)cc1 [Compound 20, 4-((3-Bromo-5-(trifluoromethyl)-1H-indazol-1-yl)methyl)benzaldehyde] |  |  |  |  |  |  |  |  |  | > 50 | > 50 | > 50 | > 50 | > 50 |  | > 50 |  |
|  |  | CN(C)CCC(=O)c1ccc(Cn2nc(Br)c3cc(C(F)(F)F)ccc32)cc1.Cl [Compound 21, 1-(4-((3-Bromo-5-(trifluoromethyl)-1H-indazol-1-yl)methyl)phenyl)-3-(dimethylamino)propan-1-one hydrochloride] |  |  |  |  |  |  |  |  | 171 to 173 | > 50 | > 50 | > 50 | > 50 | > 50 |  |  | > 50 |
